Measured values reported in PMC6913630, “Novel benzofuran-based sulphonamides as selective carbonic anhydrases IX and XII inhibitors: synthesis and in vitro biological evaluation” (Journal of Enzyme Inhibition and Medicinal Chemistry, 2019).

Experiments:
Assay in all cases: stopped-flow CO2 hydration
Assay type in all cases: biochemical
[1] = target: T1, hCA II (Homo sapiens, UniProt P00918)
T1 construct: gene CA2; not described; cytosolic isoform
Source text: stopped-flow CO2 hydration on hCA II

[2] = target: T2, hCA IX (Homo sapiens, UniProt Q16790)
T2 construct: gene CA9; not described; transmembrane tumour-associated isoform
Source text: stopped-flow CO2 hydration on hCA IX

[3] = target: T3, hCA XII (Homo sapiens, UniProt O43570)
T3 construct: gene CA12; not described; transmembrane tumour-associated isoform
Source text: stopped-flow CO2 hydration on hCA XII

[4] = target: T4, hCA I (Homo sapiens, UniProt P00915)
T4 construct: gene CA1; not described; cytosolic isoform
Source text: stopped-flow CO2 hydration on hCA I

T3 sequence (O43570 25-354): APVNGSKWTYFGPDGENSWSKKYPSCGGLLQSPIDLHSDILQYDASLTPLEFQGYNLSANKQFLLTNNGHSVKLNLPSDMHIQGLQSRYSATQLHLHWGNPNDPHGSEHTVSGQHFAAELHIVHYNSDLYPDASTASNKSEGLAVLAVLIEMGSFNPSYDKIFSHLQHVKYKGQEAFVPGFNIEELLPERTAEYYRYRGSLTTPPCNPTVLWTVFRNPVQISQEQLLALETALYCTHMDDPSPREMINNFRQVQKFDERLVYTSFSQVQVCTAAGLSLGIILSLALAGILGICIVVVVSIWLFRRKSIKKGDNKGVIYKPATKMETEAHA
T4 sequence (P00915 2-261): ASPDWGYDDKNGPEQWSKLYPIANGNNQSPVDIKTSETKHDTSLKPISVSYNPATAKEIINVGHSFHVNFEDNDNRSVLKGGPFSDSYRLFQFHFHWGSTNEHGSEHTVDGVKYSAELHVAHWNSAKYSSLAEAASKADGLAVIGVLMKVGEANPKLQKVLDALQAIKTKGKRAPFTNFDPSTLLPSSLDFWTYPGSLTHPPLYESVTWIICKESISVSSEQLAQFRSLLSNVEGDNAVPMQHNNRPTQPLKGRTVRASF

Row | Ki [1] [nM] | Ki [2] [nM] | Ki [3] [nM] | Ki [4] [nM] | SMILES
1 | 12.3 | 33.3 | 26.9 | 163 | CC(=NNc1ccc(S(N)(=O)=O)cc1)c1cc2ccccc2o1 [4a, 4–(2-(1-(Benzofuran-2-yl)ethylidene)hydrazineyl)benzenesulfonamide]
2 | 73.5 | 48.4 | 38.8 | 92.7 | CC(=NNc1ccc(S(N)(=O)=O)cc1)c1cc2cc(Br)ccc2o1 [4b, 4–(2-(1–(5-Bromobenzofuran-2-yl)ethylidene)hydrazineyl)benzenesulfonamide]
3 | 33.6 | 60.4 | 10.1 | 37.4 | CC(=NNC(=O)c1ccc(S(N)(=O)=O)cc1)c1cc2ccccc2o1 [5a, 4–(2-(1-(Benzofuran-2-yl)ethylidene)hydrazine-1-carbonyl)benzenesulfonamide]
4 | 44.2 | 27.7 | 32.5 | 63.9 | CC(=NNC(=O)c1ccc(S(N)(=O)=O)cc1)c1cc2cc(Br)ccc2o1 [5b, 4–(2-(1–(5-Bromobenzofuran-2-yl)ethylidene)hydrazine-1-carbonyl)benzenesulfonamide]
5 | 644 | 32.8 | 49.7 | 1290 | Cc1ccc(S(=O)(=O)CC(=NNc2ccc(S(N)(=O)=O)cc2)c2cc3ccccc3o2)cc1 [9a, 4–(2-(1-(Benzofuran-2-yl)-2-tosylethylidene)hydrazineyl)benzenesulfonamide]
6 | 888 | 44.6 | 33.4 | 2160 | NS(=O)(=O)c1ccc(NN=C(CS(=O)(=O)c2ccccc2)c2cc3cc(Br)ccc3o2)cc1 [9b, 4–(2-(1–(5-Bromobenzofuran-2-yl)-2-(phenylsulfonyl)ethylidene)hydrazineyl)benzenesulfonamide]
7 | 571 | 10 | 16.7 | 2500 | Cc1ccc(S(=O)(=O)CC(=NNc2ccc(S(N)(=O)=O)cc2)c2cc3cc(Br)ccc3o2)cc1 [9c, 4–(2-(1–(5-Bromobenzofuran-2-yl)-2-tosylethylidene)hydrazineyl)benzenesulfonamide]
8 | 354 | 76.6 | 71.8 | 4620 | NS(=O)(=O)c1ccc(C(=O)NN=C(CS(=O)(=O)c2ccccc2)c2cc3ccccc3o2)cc1 [10a, 4–(2-(1-(Benzofuran-2-yl)-2-(phenylsulfonyl)ethylidene)hydrazine-1-carbonyl)benzenesulfonamide]
9 | 229 | 51.1 | 38.9 | 3920 | Cc1ccc(S(=O)(=O)CC(=NNC(=O)c2ccc(S(N)(=O)=O)cc2)c2cc3ccccc3o2)cc1 [10b, 4–(2-(1-(Benzofuran-2-yl)-2-tosylethylidene)hydrazine-1-carbonyl)benzenesulfonamide]
10 | 439 | 85.4 | 66.8 | 1820 | NS(=O)(=O)c1ccc(C(=O)NN=C(CS(=O)(=O)c2ccccc2)c2cc3cc(Br)ccc3o2)cc1 [10c, 4–(2-(1–(5-Bromobenzofuran-2-yl)-2-(phenylsulfonyl)ethylidene)hydrazine-1-carbonyl)benzenesulfonamide]
11 | 727 | 97.5 | 27.5 | 828 | Cc1ccc(S(=O)(=O)CC(=NNC(=O)c2ccc(S(N)(=O)=O)cc2)c2cc3cc(Br)ccc3o2)cc1 [10d, 4–(2-(1–(5-Bromobenzofuran-2-yl)-2-tosylethylidene)hydrazine-1-carbonyl)benzenesulfonamide]
